Some results are limits rather than exact numbers.

The record followed here is ChEMBL document CHEMBL5212743, “Selectivity Literature for EUbOPEN Chemogenomics Library wave 3” (2023).

The target in test [1] is T1, Homeodomain-interacting protein kinase 1 (Homo sapiens, UniProt Q86Z02). Briefly: Selectivity interaction (KinomeScan (DiscoverX)) EUB0000724a HIPK1. Conditions: at 1 µM.
Target sequence in this assay (Q86Z02 whole entry, looked up): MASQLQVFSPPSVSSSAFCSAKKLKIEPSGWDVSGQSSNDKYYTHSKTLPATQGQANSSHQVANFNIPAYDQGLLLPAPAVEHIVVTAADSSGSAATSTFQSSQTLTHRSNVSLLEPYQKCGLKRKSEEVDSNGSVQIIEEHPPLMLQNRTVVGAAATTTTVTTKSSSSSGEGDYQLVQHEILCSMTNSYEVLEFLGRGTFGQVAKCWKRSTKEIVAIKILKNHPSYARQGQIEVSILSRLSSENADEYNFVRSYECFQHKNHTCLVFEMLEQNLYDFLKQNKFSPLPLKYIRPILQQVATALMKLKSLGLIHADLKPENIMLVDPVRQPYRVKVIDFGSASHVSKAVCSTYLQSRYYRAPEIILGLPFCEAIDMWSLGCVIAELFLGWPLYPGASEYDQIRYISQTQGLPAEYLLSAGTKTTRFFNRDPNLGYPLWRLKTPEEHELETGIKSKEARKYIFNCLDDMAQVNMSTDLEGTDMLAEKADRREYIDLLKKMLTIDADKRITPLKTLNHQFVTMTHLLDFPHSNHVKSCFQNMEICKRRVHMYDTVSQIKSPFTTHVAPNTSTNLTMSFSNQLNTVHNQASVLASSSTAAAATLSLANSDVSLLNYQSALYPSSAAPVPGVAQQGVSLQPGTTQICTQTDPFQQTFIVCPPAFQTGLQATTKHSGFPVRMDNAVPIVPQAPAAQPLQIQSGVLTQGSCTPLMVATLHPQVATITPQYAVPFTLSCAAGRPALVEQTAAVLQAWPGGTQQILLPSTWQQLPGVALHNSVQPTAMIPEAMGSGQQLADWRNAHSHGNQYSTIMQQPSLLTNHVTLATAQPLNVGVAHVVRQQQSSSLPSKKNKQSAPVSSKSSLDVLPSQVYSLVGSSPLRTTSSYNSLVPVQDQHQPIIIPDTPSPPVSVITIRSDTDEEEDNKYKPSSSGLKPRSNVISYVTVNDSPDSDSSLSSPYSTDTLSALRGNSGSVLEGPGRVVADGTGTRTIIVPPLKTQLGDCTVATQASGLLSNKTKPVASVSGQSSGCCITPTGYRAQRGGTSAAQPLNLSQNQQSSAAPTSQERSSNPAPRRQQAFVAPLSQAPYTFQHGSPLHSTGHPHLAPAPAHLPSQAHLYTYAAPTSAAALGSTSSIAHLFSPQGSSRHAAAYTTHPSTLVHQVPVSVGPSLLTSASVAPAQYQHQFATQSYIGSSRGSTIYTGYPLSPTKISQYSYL
Test [2] concerns the target T1, Homeodomain-interacting protein kinase 1. Description: Selectivity interaction (NanoBRET assay (HEK293T cells)) EUB0000724a HIPK1. (Bioluminescence resonance energy transfer reports proximity on the nanometre scale.)
Target sequence in this assay (Q86Z02 whole entry): as the sequence (Q86Z02 whole entry, looked up) above
Test [3] has as its target T2, Homeodomain-interacting protein kinase 2 (Homo sapiens, UniProt Q9H2X6). Description: Selectivity interaction (KinomeScan (DiscoverX)) EUB0000724a HIPK2. The note with it: at 1 µM.
For test [4], the target named is T2, Homeodomain-interacting protein kinase 2. Description: Selectivity interaction (NanoBRET assay (HEK293T cells)) EUB0000724a HIPK2.
For test [5], the target named is T3, Mitogen-activated protein kinase 15 (Homo sapiens) (UniProt Q8TD08).
T3 sequence (whole entry): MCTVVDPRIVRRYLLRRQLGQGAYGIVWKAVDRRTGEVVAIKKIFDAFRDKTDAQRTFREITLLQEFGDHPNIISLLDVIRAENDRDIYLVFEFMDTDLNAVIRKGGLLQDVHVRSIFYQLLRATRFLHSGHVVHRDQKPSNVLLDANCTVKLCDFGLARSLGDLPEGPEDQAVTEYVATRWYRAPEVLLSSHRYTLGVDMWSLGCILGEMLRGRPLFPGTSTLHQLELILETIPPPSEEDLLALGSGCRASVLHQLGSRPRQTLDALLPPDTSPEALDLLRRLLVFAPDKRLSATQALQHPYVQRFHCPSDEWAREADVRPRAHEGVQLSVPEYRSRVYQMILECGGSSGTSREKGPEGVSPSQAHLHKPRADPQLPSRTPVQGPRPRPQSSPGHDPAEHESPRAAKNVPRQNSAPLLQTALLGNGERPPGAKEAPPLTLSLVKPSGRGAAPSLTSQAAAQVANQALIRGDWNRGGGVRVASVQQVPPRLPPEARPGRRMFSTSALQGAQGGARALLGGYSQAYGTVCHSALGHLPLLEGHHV
Description: Selectivity interaction (KinomeScan (DiscoverX)) EUB0000724a MAPK15. The note with it: at 1 µM.

In test [6] the target is T4, Serine/threonine-protein kinase 16 (Homo sapiens, UniProt O75716). Briefly: Selectivity interaction (KinomeScan (DiscoverX)) EUB0000724a STK16. The note with it: at 1 µM.
T4 sequence (O75716 whole entry): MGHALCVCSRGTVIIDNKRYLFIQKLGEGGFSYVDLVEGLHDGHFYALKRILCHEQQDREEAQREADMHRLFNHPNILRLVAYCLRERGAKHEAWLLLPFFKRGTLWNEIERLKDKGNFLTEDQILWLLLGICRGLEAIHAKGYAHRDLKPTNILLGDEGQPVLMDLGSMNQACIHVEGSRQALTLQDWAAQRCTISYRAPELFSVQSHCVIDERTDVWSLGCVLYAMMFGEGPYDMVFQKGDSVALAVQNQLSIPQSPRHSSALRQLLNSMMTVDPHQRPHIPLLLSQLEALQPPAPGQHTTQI
Test [7] deals with T4, Serine/threonine-protein kinase 16. Briefly: Selectivity interaction (NanoBRET assay (HEK293T cells)) EUB0000724a STK16.
Test [8] has as its target Serine/threonine-protein kinase Nek7 (Homo sapiens, UniProt Q8TDX7). Description: Selectivity interaction (KinomeScan (DiscoverX)) EUB0000724a NEK7. The note with it: at 1 µM.
The target of test [9] is T5, Phosphatidylinositol 5-phosphate 4-kinase type-2 beta (Homo sapiens) (UniProt P78356).
T5 sequence (whole entry): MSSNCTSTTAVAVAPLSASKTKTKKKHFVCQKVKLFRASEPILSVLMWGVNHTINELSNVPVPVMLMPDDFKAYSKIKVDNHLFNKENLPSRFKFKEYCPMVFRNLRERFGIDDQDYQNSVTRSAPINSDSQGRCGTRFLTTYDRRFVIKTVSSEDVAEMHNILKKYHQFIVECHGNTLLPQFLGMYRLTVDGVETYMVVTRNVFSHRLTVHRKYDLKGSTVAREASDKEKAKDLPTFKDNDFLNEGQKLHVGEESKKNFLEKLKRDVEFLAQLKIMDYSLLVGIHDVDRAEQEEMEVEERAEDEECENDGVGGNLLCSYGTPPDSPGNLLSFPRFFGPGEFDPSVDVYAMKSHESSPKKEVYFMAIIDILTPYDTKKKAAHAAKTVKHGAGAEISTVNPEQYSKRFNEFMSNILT
Description: Selectivity interaction (KinomeScan (DiscoverX)) EUB0000724a PIP4K2B. The note with it: at 1 µM.

The target of test [10] is Dual specificity tyrosine-phosphorylation-regulated kinase 1B (Homo sapiens, UniProt Q9Y463). Description: Selectivity interaction (KinomeScan (DiscoverX)) EUB0000321b DYRK1B. Conditions: at 100 nM.
The target of test [11] is Dual specificity tyrosine-phosphorylation-regulated kinase 1A (Homo sapiens, UniProt Q13627). Briefly: Selectivity interaction (KinomeScan (DiscoverX)) EUB0000321b DYRK1A. The note with it: at 100 nM.
The target of test [12] is Mitogen-activated protein kinase kinase kinase 5 (Homo sapiens) (UniProt Q99683). Description: Selectivity interaction (KinomeScan (DiscoverX)) EUB0000321b MAP3K5. Conditions: at 100 nM.
The target in test [13] is Mitogen-activated protein kinase kinase kinase 5 (Homo sapiens, UniProt Q99683). Briefly: Selectivity interaction (NanoBRET assay (HEK293T cells)) EUB0000321b MAP3K5.
Test [14] concerns the target T6, Dual specificity mitogen-activated protein kinase kinase 5 (Homo sapiens) (UniProt Q13163).
T6 sequence (whole entry): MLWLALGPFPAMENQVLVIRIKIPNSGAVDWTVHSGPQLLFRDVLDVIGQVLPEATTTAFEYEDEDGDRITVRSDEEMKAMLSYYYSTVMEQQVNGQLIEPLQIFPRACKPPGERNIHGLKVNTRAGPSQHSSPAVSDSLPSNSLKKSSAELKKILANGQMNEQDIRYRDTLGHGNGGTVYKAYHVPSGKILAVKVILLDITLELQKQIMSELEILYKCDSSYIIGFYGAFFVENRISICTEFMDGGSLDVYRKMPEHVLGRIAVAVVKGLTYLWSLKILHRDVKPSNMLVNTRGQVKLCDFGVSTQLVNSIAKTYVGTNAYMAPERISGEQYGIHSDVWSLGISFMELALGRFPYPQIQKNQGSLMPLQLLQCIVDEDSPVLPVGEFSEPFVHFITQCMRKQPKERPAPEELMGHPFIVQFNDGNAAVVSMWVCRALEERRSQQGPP
Briefly: Selectivity interaction (KinomeScan (DiscoverX)) EUB0000321b MAP2K5. Conditions: at 100 nM.

Test [15] concerns the target T7, Dual specificity mitogen-activated protein kinase kinase 5 (Homo sapiens, UniProt Q13163).
T7 sequence (Q13163 whole entry): T6 sequence (whole entry)
Description: Selectivity interaction (NanoBRET assay (HEK293T cells)) EUB0000321b MAP2K5.

Test [16] deals with Receptor-type tyrosine-protein kinase FLT3 (Homo sapiens, UniProt P36888). Briefly: (§1) Selectivity interaction (NanoBRET assay (HEK293T cells)) EUB0000321b FLT3.
Test [17] has as its target Receptor-type tyrosine-protein kinase FLT3 (Homo sapiens, UniProt P36888, D835V). The test is described as §1.
In test [18] the target is T8, Mast/stem cell growth factor receptor Kit (Homo sapiens, UniProt P10721). Briefly: Selectivity interaction (KinomeScan (DiscoverX)) EUB0000321b KIT. Conditions: at 100 nM.
T8 sequence (P10721 whole entry): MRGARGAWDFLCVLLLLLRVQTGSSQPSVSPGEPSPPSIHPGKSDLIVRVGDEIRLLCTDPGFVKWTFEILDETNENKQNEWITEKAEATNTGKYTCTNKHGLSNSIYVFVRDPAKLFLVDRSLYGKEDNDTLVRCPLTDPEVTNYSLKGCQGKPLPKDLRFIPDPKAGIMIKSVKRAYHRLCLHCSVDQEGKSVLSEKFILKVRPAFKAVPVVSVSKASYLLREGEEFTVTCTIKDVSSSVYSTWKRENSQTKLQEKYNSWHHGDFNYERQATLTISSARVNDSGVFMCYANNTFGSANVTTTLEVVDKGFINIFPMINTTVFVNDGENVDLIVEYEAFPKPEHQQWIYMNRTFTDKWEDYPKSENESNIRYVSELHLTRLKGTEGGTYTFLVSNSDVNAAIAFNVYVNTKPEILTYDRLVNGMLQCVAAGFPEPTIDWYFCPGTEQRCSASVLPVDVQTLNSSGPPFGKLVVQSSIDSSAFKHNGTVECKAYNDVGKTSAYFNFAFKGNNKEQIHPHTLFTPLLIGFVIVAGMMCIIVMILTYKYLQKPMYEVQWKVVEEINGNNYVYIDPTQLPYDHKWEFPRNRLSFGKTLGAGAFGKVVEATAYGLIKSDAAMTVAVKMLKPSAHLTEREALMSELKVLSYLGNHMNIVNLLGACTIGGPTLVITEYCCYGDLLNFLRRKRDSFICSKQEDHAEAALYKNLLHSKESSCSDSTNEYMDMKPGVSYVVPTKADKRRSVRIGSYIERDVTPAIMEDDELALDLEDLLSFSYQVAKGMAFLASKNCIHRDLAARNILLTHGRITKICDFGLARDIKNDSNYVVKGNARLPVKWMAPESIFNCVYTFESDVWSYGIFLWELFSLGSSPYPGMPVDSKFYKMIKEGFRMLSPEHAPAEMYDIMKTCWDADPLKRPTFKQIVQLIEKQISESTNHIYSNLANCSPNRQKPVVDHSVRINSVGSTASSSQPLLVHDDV
Test [19] addresses T8, Mast/stem cell growth factor receptor Kit. Description: Selectivity interaction (NanoBRET assay (HEK293T cells)) EUB0000321b KIT.
Test [20] has as its target T9, Platelet-derived growth factor receptor alpha (Homo sapiens, UniProt P16234). Briefly: Selectivity interaction (KinomeScan (DiscoverX)) EUB0000321b PDGFRA. Conditions: at 100 nM.
Test [21] has as its target T9, Platelet-derived growth factor receptor alpha. Briefly: Selectivity interaction (NanoBRET assay (HEK293T cells)) EUB0000321b PDGFRA.
Test [22] concerns the target T10, Platelet-derived growth factor receptor beta (Homo sapiens, UniProt P09619). Briefly: Selectivity interaction (NanoBRET assay (HEK293T cells)) EUB0000321b PDGFRB.
For test [23], the target named is T10, Platelet-derived growth factor receptor beta. Briefly: Selectivity interaction (KinomeScan (DiscoverX)) EUB0000321b PDGFRB. Conditions: at 100 nM.

T9 sequence (P16234 whole entry): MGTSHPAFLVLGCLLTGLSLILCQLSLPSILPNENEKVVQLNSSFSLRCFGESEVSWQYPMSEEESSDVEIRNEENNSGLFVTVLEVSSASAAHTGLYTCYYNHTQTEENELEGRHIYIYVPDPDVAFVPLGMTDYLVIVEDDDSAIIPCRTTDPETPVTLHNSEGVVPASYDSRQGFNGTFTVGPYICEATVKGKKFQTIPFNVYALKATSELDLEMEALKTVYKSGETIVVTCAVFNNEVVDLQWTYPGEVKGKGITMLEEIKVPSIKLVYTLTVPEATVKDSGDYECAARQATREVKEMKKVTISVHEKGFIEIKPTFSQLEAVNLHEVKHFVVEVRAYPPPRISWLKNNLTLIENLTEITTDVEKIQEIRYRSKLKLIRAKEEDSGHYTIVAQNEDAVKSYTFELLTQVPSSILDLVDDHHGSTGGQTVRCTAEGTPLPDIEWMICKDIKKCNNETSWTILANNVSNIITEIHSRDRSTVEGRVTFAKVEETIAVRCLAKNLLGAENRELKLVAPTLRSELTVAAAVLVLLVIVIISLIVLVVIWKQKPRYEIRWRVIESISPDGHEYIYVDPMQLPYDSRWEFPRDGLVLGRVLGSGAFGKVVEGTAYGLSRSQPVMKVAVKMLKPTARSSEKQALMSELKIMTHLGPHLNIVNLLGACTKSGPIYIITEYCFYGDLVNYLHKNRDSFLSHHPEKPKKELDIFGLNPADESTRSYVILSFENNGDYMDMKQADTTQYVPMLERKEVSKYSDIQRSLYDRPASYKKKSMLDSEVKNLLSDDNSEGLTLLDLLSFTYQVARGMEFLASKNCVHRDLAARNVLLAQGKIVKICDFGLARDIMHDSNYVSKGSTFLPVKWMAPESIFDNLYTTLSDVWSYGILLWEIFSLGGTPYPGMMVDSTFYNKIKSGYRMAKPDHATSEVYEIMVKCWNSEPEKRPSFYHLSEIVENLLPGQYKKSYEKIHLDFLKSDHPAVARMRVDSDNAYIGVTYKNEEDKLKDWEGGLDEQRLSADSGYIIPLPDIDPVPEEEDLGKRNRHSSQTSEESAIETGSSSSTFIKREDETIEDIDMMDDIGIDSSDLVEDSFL
T10 sequence (P09619 whole entry): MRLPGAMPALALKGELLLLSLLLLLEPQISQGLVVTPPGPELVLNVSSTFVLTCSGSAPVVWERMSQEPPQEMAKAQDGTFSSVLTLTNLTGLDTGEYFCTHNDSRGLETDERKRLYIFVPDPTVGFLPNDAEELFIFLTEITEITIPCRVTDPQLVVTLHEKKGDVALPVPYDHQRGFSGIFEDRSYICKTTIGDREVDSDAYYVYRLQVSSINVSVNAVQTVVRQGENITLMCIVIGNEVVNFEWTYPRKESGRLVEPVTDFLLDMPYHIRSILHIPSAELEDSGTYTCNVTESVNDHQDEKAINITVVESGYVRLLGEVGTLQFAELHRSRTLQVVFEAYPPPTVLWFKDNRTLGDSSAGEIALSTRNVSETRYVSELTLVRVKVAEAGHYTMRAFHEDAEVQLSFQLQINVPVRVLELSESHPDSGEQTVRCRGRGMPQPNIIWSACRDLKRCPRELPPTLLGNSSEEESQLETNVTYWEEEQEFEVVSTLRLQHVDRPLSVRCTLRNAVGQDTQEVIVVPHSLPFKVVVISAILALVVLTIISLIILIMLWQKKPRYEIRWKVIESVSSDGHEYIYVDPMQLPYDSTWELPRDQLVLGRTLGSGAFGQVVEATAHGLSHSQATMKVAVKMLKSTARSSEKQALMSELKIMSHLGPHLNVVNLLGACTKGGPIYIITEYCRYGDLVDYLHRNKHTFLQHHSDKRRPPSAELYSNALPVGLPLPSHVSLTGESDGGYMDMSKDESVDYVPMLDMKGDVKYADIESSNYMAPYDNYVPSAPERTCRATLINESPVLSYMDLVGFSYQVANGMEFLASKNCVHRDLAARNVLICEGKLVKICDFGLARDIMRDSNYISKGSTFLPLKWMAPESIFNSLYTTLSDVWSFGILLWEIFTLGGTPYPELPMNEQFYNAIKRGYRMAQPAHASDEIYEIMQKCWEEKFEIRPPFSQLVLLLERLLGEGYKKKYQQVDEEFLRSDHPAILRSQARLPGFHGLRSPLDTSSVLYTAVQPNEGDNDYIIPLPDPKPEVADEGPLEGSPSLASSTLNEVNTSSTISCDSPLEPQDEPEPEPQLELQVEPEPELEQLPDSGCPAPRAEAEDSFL
Chain of Serine/threonine-protein kinase Nek7 (Q8TDX7 whole entry, looked up): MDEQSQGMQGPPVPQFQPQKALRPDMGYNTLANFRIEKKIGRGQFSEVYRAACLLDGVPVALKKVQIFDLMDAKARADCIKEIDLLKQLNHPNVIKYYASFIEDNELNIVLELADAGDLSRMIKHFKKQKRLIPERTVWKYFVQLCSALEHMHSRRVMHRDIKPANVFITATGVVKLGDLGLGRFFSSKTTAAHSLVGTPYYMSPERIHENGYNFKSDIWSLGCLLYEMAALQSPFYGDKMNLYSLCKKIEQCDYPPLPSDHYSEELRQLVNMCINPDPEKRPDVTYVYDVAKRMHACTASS

Usually IC50 stands for the concentration needed to halve the response being measured. Lower therefore signals greater potency in that assay. For `COc1cc(Nc2nccc(-c3cnn4nc(OC)ccc34)n2)cc(C(F)(F)F)c1`, the % of control in test [1] was determined as 31%; in test [3] it was 34%; in test [5], 21%; in test [6], 53%; in [8] it was 40%; in [9], 50%. The results for the IC50 in test [2], in test [4] and in [7] were > 10 µM, > 10 µM and 0.167 µM, respectively.
On to `CN1CCN(C(=O)C(C)(C)c2ccc(C(=O)Nc3cn4cc(-c5ccncc5)ccc4n3)cc2)CC1` [T3-CLK], for which the % of control in test [10] is 4.4%; in test [11], 0.3%; in test [12], 19%; in test [14] it was 4.9%; in test [18], 14%; in test [20], 29%. This molecule came in with a % of control in test [23] of 24%. Further, the IC50 in [13] was > 10 µM; in test [15] it was > 10 µM; in [16], 2.44 µM; in test [17] it was 138 µM; in test [19], 2.44 µM; in test [21], 2.52 µM. In addition, 3 µM corresponded to half-maximal inhibition in test [22] (IC50).
